Key:
[1] = test system: human platelet rich plasma (PRP); experiment: Aggregation of platelets in fresh human platelet rich plasma, Born aggregometer; format: cell-based
Procedure: Aggregation of platelets in 1 ml. of fresh human platelet rich plasma (PRP) was monitored in a Born aggregometer. An immediate anti-aggregatory effect of the fresh reaction mixture of Example 1 of aortic microsomes with PGH2 or PGG2 was observed. The lowest anti-aggregatory concentration was obtained with samples containing 0.5-5 ng. Prostacyclin/ml.

[2] = test system: isolated hearts from rabbits; experiment: Isolated hearts perfused at constant flow rate by the Langendorf technique; details: rabbit hearts
[3] = test system: gastric lesions induced by indomethacin; experiment: Gastric lesions induced in rats by indomethacin; format: in vivo; details: doses from 62.5 to 250 μg/kg, subcutaneous injection
[4] = Stability of Prostacyclin and of its anti-aggregatory activity (aqueous medium, storage); format: physicochemical
Procedure: Prostacyclin is unstable at room temperature in aqueous medium, having a half-life of approximately 10 mins., but its anti-aggregatory activity can be preserved for several days by dissolving the substance in aqueous alkali or in dry acetone and storing at -20° C. […] Prostacyclin also interrupts and reverses the presence of platelet aggregation.
The anti-aggregatory activity of the extracted Prostacyclin disappeared on bioling (15 seconds) or on standing at 22° C. for 20 minutes. The anti-aggregatory activity of Prostacyclin could be preserved for several days by dissolving the substance in dry acetone and storing at -20° C.

blood pressure = experiment: Blood pressure and heart rate in normotensive anaesthetised rats; format: in vivo; details: injected intravenously and intra-aortically
Procedure: Prostacyclin was injected intravenously and intra-aortically into normotensive anaethetised rats and the blood pressure and heart rate recorded.

[5] = test system: strips of coronary artery from the ox; experiment: Relaxation of spirally cut strips of coronary artery; details: dose dependent effect
Procedure: The effect is dose dependent and relaxation can be seen with doses as low as 20 nanograms per 5 ml bath.

[6] = test system: strips of coeliac and mesenteric arteries; experiment: Relaxation of strips of coeliac and mesenteric arteries; parameters: species or system rabbit
strips of rabbit aorta = experiment: Contraction of rabbit aorta strips (cascade superfusion bioassay)
Procedure: Aortic microsomal powder (5 mg) was incubated with 1 μg of prostalgandin endoperoxide (PGG2 or PGH2) in 0.05 M Tris buffer (pH 7.5) (1 ml.) for 2 minutes at 22° C. Enzyme activity was estimated by direct bioassay of the incubation mixture. After incubation of 2 minutes at 22° C. all prostaglandin endoperoxide activity was lost indicated by a lack of contraction of rabbit aorta strips when assayed by the cascade superfusion technique of Vane (Br. J. Pharmacy. 23, 369-373, 1964 indicating 100% conversion of PGG2 or PGH2.

[7] = test system: rabbit aorta, rabbit coeliac artery, rat stomach strip and rat colon; experiment: Profile of biological activity on isolated tissues
Procedure: 5.xi.-Iodo-9-deoxy-6.xi., 9α-epoxyprostaglandin F1α methyl ester (500 mg) was stirred with methanolic NaOMe prepared from Na (0.23 g., 10 equivs.) and MeOH (3.5 ml.) under N2 at room temperature overnight; 1N aq. NaOH (2.5 ml.) was added to the yellow reaction solution to bring about hydrolysis of the ester moiety and, after 2 hours, the methanol was evaporated in vacuo at room temperature. The residual aqueous solution gave rise spontaneously to a mass of colourless fine needles of the desired sodium salt (formula (I): R=Na) which was cooled (0°), collected, washed sparingly with 1N aq. NaOH, air-dried, and stored in a stoppered tube; this salt (383 mg.) had max (KBr disc) 1692 cm^-1 [drawing 4] and twenty ^13 C resonances only were observed (at 182.7 (C-1), 158.2 (C-6), 140.0 and 134.3 (C-13, 14), 100.7(C-5), 87.5(C-15), 80.6 and 75.5(C-9, 11), 58.0(C-12), 49.0, 45.8, 42.4, 41.9, 37.5, 35.8 (C-18), 31.6., 29.9, 29.3, 26.7(C-19), and 18.4(C-20) ppm from TMS in DMSO-d6). The product, sodium (5Z)- 5,6-didehydro-9-deoxy-6,9α-epoxyprostaglandin F1α (syn. sodium prostacyclin), thus obtained completed inhibited arachidonic acid-induced platelet aggregation (human platelet-rich plasma) at 1 ng./ml. and its profile of biological activity on the rabbit aorta, rabbit coeliac artery, rat stomach strip and rat colon conformed with that of sodium prostacyclin obtained by biosynthesis. […]

| SMILES | minimal effective concentration ([1]; Platelet, fresh reaction mixture of aortic microsomes with PGH2 or PGG2, 1 ml human PRP, read-out: lowest anti-aggregatory concentration) [µg/mL] | effect on platelet aggregation induced by arachidonic acid and PGG2 ([1]; diethyl ether extracts) | anti-aggregatory potency relative to PGD2 ([1]; times more potent than PGD2, on average) | anti-aggregatory potency relative to PGE1 ([1]; times more potent than PGE1, on average) | effect on coronary vessels [2] | effect on formation of gastric lesions [3] | anti-aggregatory activity after boiling ([4]; boiling, 15 seconds, extracted Prostacyclin) | time for which anti-aggregatory activity is preserved on storage ([4]; dissolved in dry acetone (b5: or aqueous alkali), stored at -20° C.) | half-life ([4]; room temperature, aqueous medium) [min] | anti-aggregatory activity after standing ([4]; standing at 22° C. for 20 minutes, extracted Prostacyclin) | vasodepressor potency relative to PGE2 (blood pressure) [times] | lowest dose at which relaxation can be seen [5] [nanograms per 5 ml bath] | effect on strips of coeliac and mesenteric arteries [6] | potency compared with PGE2 on coeliac and mesenteric artery strips [6] | effect on strips of rabbit aorta (strips of rabbit aorta) | IC100 ([1]; arachidonic acid-induced, human platelet-rich plasma, read-out: concentration giving complete inhibition of arachidonic acid-induced platelet aggregation) [µg/mL] | stability in water at acid pH ([4]; water, acid pH) | profile of biological activity compared with sodium prostacyclin obtained by biosynthesis [7] |
| --- | --- | --- | --- | --- | --- | --- | --- | --- | --- | --- | --- | --- | --- | --- | --- | --- | --- | --- |
| CCCCC[C@H](O)/C=C/[C@@H]1[C@H]2C/C(=C/CCCC(=O)O)O[C@H]2C[C@H]1O [Prostacyclin, (5Z)-5,6-didehydro-9-deoxy-6,9α-epoxyprostaglandin F1α] | 0.0005 to 0.005 | inhibited | 5-20 times | 10-40 times | produced coronary vasodilation | inhibit the formation of gastric lesions | disappeared | several days | ~10 | disappeared | 5 | 20 | relaxed | less potent than PGE2 | does not contract | – | – | – |
| CCCCC[C@H](O)/C=C/[C@@H]1[C@H]2C/C(=C/CCCC(=O)O)O[C@H]2C[C@H]1O [sodium prostacyclin, sodium (5Z)-5,6-didehydro-9-deoxy-6,9α-epoxyprostaglandin F1α] | – | – | – | – | – | – | – | – | – | – | – | – | – | – | – | 0.001 | instability | conformed |
